According to patent EP1721613A1, “Hesperidin for the treatment of epilepsy, migraine, schizophrenia, depression and drug abuse” (priority 2005, dated 2006):
Entries after “also recorded” stand apart in the source; their conditions may differ.

Columns and labels:
Fischer-344 Ratten = experiment: Tele-Stereo-EEG (changes of EEG frequencies in freely moving rats); format: in vivo, Ratte
Protocol: Die Veränderungen der EEG-Frequenzen nach intraperitonealer Gabe von Salzlösung (Kontrolle) bzw. verschiedener Dosen von Hesperidin (10 bis 300 mg/kg Körpergewicht sowie oral 500 mg/kg) wurden bestimmt. Ebenso wurden verschiedene Dosierungen von Hesperetin (80-320 mg/kg i.p. sowie 500 mg/kg oral untersucht.
Die Untersuchungen wurden analog der durch W. Dimpfel beschriebenen Methode (Dimpfel W Preclinical data base of pharmaco-specific rat EEG fingerprints (Tele-Stereo-EEG). Eur J Med Res (2003) 8: 199-207) folgendermaßen durchgeführt: Zwölf männlichen erwachsenen Fischer-344 Ratten (Tag-Nacht konvertiert) wurden im Alter von 6 Monaten 4 bipolar konzentrische Elektroden zusammen mit einem Mikrostecker auf einer gemeinsamen Basisplatte implantiert. Der Stecker diente der Aufnahme eines 4-Kanal-Senders zur telemetrischen Übertragung der aus frontalem Kortex, Hippokampus, Striatum und Formatio Reticularis abgeleiteten Feldpotentiale. Die Signale wurden auf einem Computer System (Software "EEG-Analyse", Betriebssystem OS Science, Laborrechner "LabTeam" der Firma MediSyst, Linden, DE) in Echtzeit einer Fast-Fourier-Transformation unterworfen und die Leistungsdichtespektren jeweils über 60 Minuten gemittelt. Die Unterteilung der Spektren in 6 verschiedene Frequenzbereiche erlaubte die Erfassung pharmako-spezifischer Veränderungen in Bezug auf die jeweils vor Applikation gemessenen Vorwerre innerhalb dieser Frequenzbänder.
Zum Applikationsprotokoll der Substanzen: die Substanzen wurden i.p. 45 Minuten nach Beginn der Messungen (Vorwert) injiziert. Fünf Minuten später wurden die Messungen wieder gestartet, mindestens über die nächsten 5 Stunden kontinuierlich analysiert und in 60-minütigen Perioden zusammengefaßt. Die Testsubstanzen wurden in einer Dosierung von 10 bis 500 mg/kg appliziert. Die experimentelle Serie wurde mit der Injektion von Salzlösung (Kontrolle), die zu keiner auffälligen Änderung führte, begonnen.
Der statistische Vergleich der Versuche zu den Ergebnissen, die nach Gabe von Salzlösung gemessen wurde, erfolgte mit Hilfe einer multivariaten Analyse nach Ahrens und Läuter (siehe H. Ahrens, J. Läuter "Mehrdimensionale Varianzanalyse" (1974), Akademie Verlag, Berlin) auf der Basis der Veränderungen innerhalb der einzelnen Frequenzbänder in allen Hirnregionen als Variablen.

[1] = test system: Pyramidenzellen im Hippokampus-Schnittpräparat; experiment: Hippocampal slice in vitro: antagonism of the 4-aminopyridine-induced change of excitability; format: cell-based, Ratte; conditions: superfused together with 4-Aminopyridin
From the text: (§1) Wirkungen von Hesperidin und Hesperetin auf die Erregbarkeit der Pyramidenzellen wurden im Hippokampus-Schnittpräparat der Ratte bestimmt. Die Analyse der Wirkungen erfolgte auf drei Ebenen. Zunächst wurde anhand der Applikation von Einzelreizen die normale Erregbarkeit überprüft und anschließend nach einer sog. "Theta-burst-Stimulation" die Auswirkungen auf die Langzeitpotenzierung gemessen. Im nächsten Schritt wurde versucht, die Wirkung von Krampf auslösenden Substanzen zu antagonisieren. In einer dritten Versuchsserie wurde die Substanz eine Woche lang appliziert und dann "ex vivo" die Änderung der Erregbarkeit auf eine Provokation mit der Krampf auslösenden Substanz 3-Aminopyridin (3-AP) gemessen.
(§2) Für die Durchführung dieser Studien wurden 30 erwachsene männliche CD-Ratten verwendet. Die Isolation des Hippokampus erfolgte an äthemarkotisierten und anschließend exsanguinierten Tieren.
Das Experiment selbst wurde in einer sog. "Base Unit" mit Haas Top" (Firma Medical Systems Corp., USA) bei 35 Grad Celsius durchgeführt. Der mit Hilfe peristaltischer Pumpen (Infusomat B. Braun Melsungen AG) superfundierte Hippokampus-Schnitt lag auf einem Stück Gaze. Eingeleitetes Carbogen hielt die erforderliche Sauerstoffzufuhr der Lösung aufrecht. Die Durchflussgeschwindigkeit betrug 200 ml/h. […]

[2] = test system: Pyramidenzellen des Hippokampus; experiment: Hippocampal slice ex vivo after 7 days of in vivo dosing: provocation with 4-aminopyridine; set-up: species or system Ratte; conditions: 500 mg/kg daily over 7 days in vivo, compared with placebo
From the text: as §1, with “In einer dritten Versuchsserie wurde die Substanz eine Woche lang appliziert und dann "ex vivo" die Änderung der Erregbarkeit auf eine Provokation mit der Krampf auslösenden Substanz 3-Aminopyridin (3-AP) gemessen.” left out
Dieselbe Versuchsanordnung wurde letztendlich noch einmal nach in vivo Applikation beider Substanzen in einer repetitiven Dosierung von 500 mg/kg täglich über 7 Tage im Vergleich zu Placebo angewandt (sog. "ex vivo" Design). Dabei sollte überprüft werden, ob eine repetitive Gabe zur Erregbarkeitsveränderungen der Pyramidenzellen des Hippokampus führt. […] Dieses Ergebnis ist auch ein Hinweis darauf, dass in vivo neben dem im Darm entstehenden Hesperetin auch genügend wirksames Hesperidin das Gehim erreicht. Gleichzeitig wird dadurch nochmals bestätigt, dass Hesperidin und Hesperetin ein unterschiedliches Wirkprofil haben.

[3] = test system: Pyramidenzellen im Hippokampus-Schnittpräparat; experiment: Hippocampal slice in vitro: population spike after single stimuli and long-term potentiation after theta-burst stimulation; format: cell-based, Ratte; conditions: n=6 slices; for Langzeitpotenzierung durch TBS: theta-burst stimulation, 5 bis 60 µM for Hesperidin
From the text: as §1, §2
Das Experiment selbst wurde in einer sog. "Base Unit" mit Haas Top" (Firma Medical Systems Corp., USA) bei 35 Grad Celsius durchgeführt. Der mit Hilfe peristaltischer Pumpen (Infusomat B. Braun Melsungen AG) superfundierte Hippokampus-Schnitt lag auf einem Stück Gaze. Eingeleitetes Carbogen hielt die erforderliche Sauerstoffzufuhr der Lösung aufrecht. Die Durchflussgeschwindigkeit betrug 200 ml/h.
Die Stimulation der CA2-Region (Schaffer-Kollateralen) erfolgte unter Verwendung eines Reizgenerators (Laborcomputer Labteam der Fa. MediSyst GmbH, Linden, DE) über eine Isoliereinheit mit Hilfe einer bipolar konzentrischen Stahlelektrode (Rhodes Medical Systems, USA. Die Impulsbreite betrug 200 µs, die Stromstärke konstant 200 µA. Der Reizgenerator löste im Abstand von jeweils 20 Sekunden 4 Einzelreizungen aus, die im Schnitt insgesamt 4 Populationsspikes evozierten. Die Ableitung der Antwort erfolgte in der […] Region. Das System mittelte die Reizantwort der 4 Spike-Amplituden.
Dabei wurde der Schnitt zunächst mit Kontrolllösung superfundiert. […]

[4] = test system: autosomaler dominanter nocturner Frontallappenepilepsie; experiment: Therapeutic trial in one patient with drug-resistant epilepsy; format: in vivo, Patientin
From the text: Um das Konzept auch am Patienten zu überprüfen, wurde einer jungen unter autosomaler dominanter nocturner Frontallappenepilepsie leidenden Patientin, die selbst in Gegenwart von 3 Gramm unterschiedlicher Antiepileptika weiterkrampfte (im Mittel 20 Anfälle pro Monat) täglich 1 Gramm Hesperidin abends vor dem Einschlafen oral über einen Zeitraum von 2 Monaten verabreicht. […] Das Ergebnis der Untersuchungen ist in Abb. 12 dokumentiert.

## COc1ccc([C@@H]2CC(=O)c3c(O)cc(O)cc3O2)cc1O [Hesperetin]
Fischer-344 Ratten; 320 mg/kg i.p., after 2 hours, frontal cortex
  Veränderungen der elektrischen Hirnaktivität: Zunahmen der delta und alpha2 Aktivität
Fischer-344 Ratten; higher dose
  EEG-Muster im Vergleich zu Referenzmedikamenten (Diskriminanzanalyse): dem klassischer Antikonvulsiva ähnlich
Fischer-344 Ratten; i.p. single dose, low dose range
  Veränderungen der elektrischen Hirnaktivität: im niedrigen Dosisbereich dem nach Gabe von Hesperidin entsprach
Fischer-344 Ratten; low doses
  EEG-Muster im Vergleich zu Referenzmedikamenten (Diskriminanzanalyse): wie es für die Applikation von Mitteln gegen Migräne und Schizophrenie (Metoprolol bzw. Haloperidol und Risperidon) typisch ist
[1]
  Änderung der Erregbarkeit der Pyramidenzellen durch die Gegenwart von 4-Aminopyridin: nicht jedoch von Hesperetin vermindert
[2]
  durch 4-Aminopyridin provozierte Erhöhung der Erregbarkeit (ex vivo): nicht jedoch in den mit Placebo oder Hesperetin behandelten Tieren

## COc1ccc([C@@H]2CC(=O)c3c(O)cc(O[C@@H]4O[C@H](CO[C@@H]5O[C@@H](C)[C@H](O)[C@@H](O)[C@H]5O)[C@@H](O)[C@H](O)[C@H]4O)cc3O2)cc1O [Hesperidin, Hesperetin 7-rhamnoglucosid]
Fischer-344 Ratten; 20 mg/kg i.p.
  Veränderungen der Leistungsdichte in den einzelnen Hirnregionen: Zunahmen der alpha1 und beta Aktivität
Fischer-344 Ratten; 40 mg/kg i.p.
  Veränderungen der Leistungsdichte in den einzelnen Hirnregionen: Zunahmen der elektrischen Leistung im alpha1 und beta Bereich
Fischer-344 Ratten; 300 mg/kg i.p., significant at least at P < 5%
  Veränderungen der Leistungsdichte in den einzelnen Hirnregionen: generellen Abfall der elektrischen Leistung
Fischer-344 Ratten; 80 und 160 mg/kg i.p., statistically significant pattern, seen over the 5 hours of the test
  Veränderungen der Leistungsdichte in den einzelnen Hirnregionen: Abnahmen der elektrischen Leistung im delta, theta und alpha2 Bereich
Fischer-344 Ratten; higher dose
  EEG-Muster im Vergleich zu Referenzmedikamenten (Diskriminanzanalyse): dem nach Gabe klassischer Antidepressiva
Fischer-344 Ratten; low doses
  EEG-Muster im Vergleich zu Referenzmedikamenten (Diskriminanzanalyse): wie es für die Applikation von Mitteln gegen Migräne und Schizophrenie (Metoprolol bzw. Haloperidol und Risperidon) typisch ist
[3]; single stimuli, 5 bis 60 µM
  Amplitude des Populationsspikes bei Einzelreizung: Unterdrückung der Pyramidenzellaktivität nach Einzelreizung; also recorded: Konzentrations-abhängigen Abfall der Amplitude des Populationsspikes
[3]
  Langzeitpotenzierung durch TBS: Unterdrückung der Langzeitpotenzierung; also recorded: Konzentrations-abhängig unterdrückt
[1]
  Änderung der Erregbarkeit der Pyramidenzellen durch die Gegenwart von 4-Aminopyridin: vermindert
[2]
  durch 4-Aminopyridin provozierte Erhöhung der Erregbarkeit (ex vivo): Unterdrückung der durch 4-Aminopyridin provozierten Erhöhung
[4]; 1 Gramm daily orally for 2 months
  Ausprägung des alpha1 Fokus im Frontallappen (Nachuntersuchung): deutlich geringere Ausprägung des alphal Fokus im Frontallappen
[4]; 1 Gramm daily orally in the evening for 2 months, baseline on average 20 seizures per month under 3 g antiepileptics
  Häufigkeit der Anfälle: um die Hälfte reduziert

## Fc1ccc([C@@H]2CCNC[C@H]2COc2ccc3c(c2)OCO3)cc1 [Paroxetin, reference compound]
[3]
  Langzeitpotenzierung durch TBS: unterdrückt die Langzeitpotenzierung
